Where a SMILES comes first, the peptide text is derived from it.
Legend:
[1] = test system: Clostridium XI cluster; assay: i-screen microbiota composition by 16S rRNA V4 sequencing, Clostridium XI; assay type: cell-based, human; conditions: for Clostridium_XI relative abundance: 24 h SIEM, amino acids 3.5 mM, dipeptides 7 mM; for effect on Clostridia XI group: Example 8, dipeptides 7 mM, 0% O2
Text: (§1) To determine the effect of the probiotic strains Bacillus subtilis DSM 32315, Bacillus subtilis DSM 32540, Bacillus licheniformis DSM 32314 and Bacillus amyloliquefaciens CECT 5940 on adult colonic microbiota, an intestinal screening model was used (i-screen, TNO, the Netherlands). Therefore the i-screen model was inoculated with standard human adult fecal microbiota material, which consisted of pooled fecal donations from 6 healthy adult volunteers (Caucasian, European lifestyle and nutrition). The fecal material was mixed and grown in a fed-batch fermenter for 40 hours to create a standardized microbiota as described previously. These standard adult gut microbiota sets were stored at −80° C. in 12% glycerol.
(§2) The intestinal microbiota was cultured in vitro in modified standard ileal efflux medium (SIEM), the composition of which was described by and modified as follows: 0.047 g/l pectin, 0.047 g/l xylan, 0.047 g/l arabinogalactan, 0.047 g/l amylopectin, 0.392 g/l starch, 24.0 g/l casein, 24.0 Bacto pepton, 0.4 ox-bile and 0.2 g/l cysteine. All components were supplied by Trititium Microbiology (Veldhoven, The Netherlands). The pH of the medium was adjusted to 5.8.
For the i-screen fermentations, the precultured standardized fecal inoculum was diluted 50 times in 1350 μl modified SIEM. All experiments have been carried out in triplicates. The strains Bacillus subtilis (DSM 32315), Bacillus subtilis DSM 32540, Bacillus licheniformis DSM 32314 and Bacillus amyloliquefaciens CECT 5940 were precultured separately in 50 ml LBKelly medium, for about 16 h. Incubation was done in shaking flasks at 37° C. under aerobic conditions. After incubation, bacterial density was determined by optical density measurement at 600 nm. A final stock solution of 1×10^10 cells/ml was prepared in 1 ml buffer solution (0.1 mM MES pH 6). […]
DNA extraction for the sequencing of 16S rRNA coding genes was performed as described by Ladirat et al. (2013) with some minor modifications. Approximately 100 μl of the culture materials were added to the wells of a 96 well plate containing per well 300 μl of lysis buffer (Mag Mini DNA Isolation Kit, LGC ltd, UK), 500 μl zirconium beads (0.1 mm; BioSpec products, Bartlesville, OK, USA) and 500 μl of phenol saturated with Tris-HCI (pH 8.0; Carl Roth GMBH, Germany). The 96 well plate was placed in a Mini-BeadBeater-96 (BioSpec products, Bartlesville, Okla, USA) for 2 min at 2100 oscillations/min. DNA was subsequently purified using the Agowa Mag Mini DNA Isolation Kit according to the manufacturer recommendations. Extracted DNA was eluted in a final volume of 60 μl buffer.
The microbiota composition was analyzed by 16S rRNA gene amplicon sequencing of the V4 Hypervariable Region. This was Achieved Through a Series of Steps:
Subsequently, PCR amplicons of the V4 hypervariable region of the 16S rRNA gene were generated for the individual samples by amplification of […] of DNA as described by (2013), using F515/R806 primers. Primers included Illumina adapters and a unique 8-nt sample index sequence key. A mock control was included for technical quality control. The amount of amplified DNA per sample was quantified using the dsDNA 910 Reagent Kit on the Fragment Analyzer (Advanced Analytical). The amplicon libraries were pooled in equimolar amounts and purified from 1,2% agarose gel using the Gel Extraction Kit (Qiagen). The Library was quantified using the Quant-iT™ PicoGreen® dsDNA Assay Kit (Thermo Fisher Scientific). Paired-end sequencing of amplicons was conducted on the Illumina MiSeq platform (Illumina, Eindhoven, The Netherlands).
The sequence data was processed with Mothur v.1.36.1 [26] in line with the mothur MiSeq SOP [24].

[2] = test system: human gut microbiota; assay: lactate and short-chain fatty acid production in i-screen with human gut microbiota; assay type: cell-based; conditions: 24 h, amino acids 3.5 mM, dipeptides 7 mM
Text: as §1, §2
For the i-screen fermentations, the precultured standardized fecal inoculum was diluted 50 times in 1350 μl modified SIEM. All experiments have been carried out in triplicates. The strains Bacillus subtilis (DSM 32315), Bacillus subtilis DSM 32540, Bacillus licheniformis DSM 32314 and Bacillus amyloliquefaciens CECT 5940 were precultured separately in 50 ml LBKelly medium, for about 16 h. Incubation was done in shaking flasks at 37° C. under aerobic conditions. After incubation, bacterial density was determined by optical density measurement at 600 nm. A final stock solution of 1×10^10 cells/ml was prepared in 1 ml buffer solution (0.1 mM MES pH 6). The suspension of each strain was introduced into the i-screen to a final level of about 10^9 cells/ml, respectively
The i-screen incubation was performed under following gas conditions: 0.2% O2, 0.2% CO2, 10% H2, 89.6% N2.
The effect of the combination of different probiotic strains together with glutamine, or glutamine- or glutamic acid-containing dipeptides containing peptides on the n-butyrate production of the microbial community was analyzed for the strain B. subtilis (DSM 32315) as described in example 1 and 5. The single amino acids were added to a concentration of 3.5 mM and the dipeptides to a concentration of 7 mM.
The effects of the combination of different probiotic strains together with glutamine, or glutamine- or glutamic acid-containing dipeptides containing peptides on the n-butyrate production of the microbial community were analyzed for the strains B. licheniformis (DSM 32314) and B. amyloliquefaciens (CECT 5940) as described in example 1, 5, and 10. The single amino acids were added to a concentration of 3.5 mM and the dipeptides to a concentration of 7 mM.

[3] = infused, post-operative anaesthetized dogs; cited from earlier work
[4] = oral supplementation, guinea-pigs treated with methotrexate; cited from earlier work
[5] = test system: gut microbiota; conditions: oral supplementation, overweight humans; cited from earlier work
[6] = microbiota + CECT 5940 (first group so headed, r13-r15)
[7] = microbiota + CECT 5940 (second group so headed, r16-r18)
[8] = in combination with B. licheniformis (DSM 32314)
[9] = in combination with B. subtilis (DSM 32315)

Compound `CC(=O)N[C@@H](C)C(=O)N[C@@H](CCC(N)=O)C(=O)O` [Ac-Ala-Gln] (Ac-Ala-Gln-OH) has a Clostridium_XI relative abundance [1, 6] of 21%, a Clostridium_XI relative abundance [1, 7] of 20% and a Clostridium_XI relative abundance ([1]; microbiota + DSM 32315) of 31%. The Clostridium_XI relative abundance ([1]; microbiota, no probiotic cells) was 27%.

For `C[C@H](N)C(=O)N[C@@H](CCC(N)=O)C(=O)O` [Ala-Gln, Alanine-Glutamine] (H-Ala-Gln-OH), the “effect on Clostridia XI group” value [1] was “reduced the Clostridia XI group almost completely”, the Clostridium_XI relative abundance [1, 6] was 0% and the Clostridium_XI relative abundance [1, 7] was 0%. For the same compound, the Clostridium_XI relative abundance ([1]; microbiota + DSM 32315) was 0%, the Clostridium_XI relative abundance ([1]; microbiota, no probiotic cells) was 0% and the “synergy on n-butyrate concentration” value [2, 8] was “Synergistic positive effects”. The “synergy on n-butyrate concentration” value [2, 9] was “Synergistic positive effects” and the “extraction of the amino acids by skeletal muscle” value [3] was “extracted by skeletal muscle almost as well as from mixtures of alanine and glutamine”.

With `NC(=O)CC[C@H](N)C(=O)O` [Gln, glutamine, reference compound] the Clostridium_XI relative abundance [1, 6] was 20%, the Clostridium_XI relative abundance [1, 7] was 21% and the Clostridium_XI relative abundance ([1]; microbiota + DSM 32315) was 24%. For the same compound, the Clostridium_XI relative abundance ([1]; microbiota, no probiotic cells) was 28%, the “synergy on n-butyrate concentration” value ([2]; in combination with B. amyloliquefaciens (CECT 5940)) was “Synergistic positive effects” and the “synergy on n-butyrate concentration” value [2, 9] was “Synergistic positive effects”. For the same compound, the mortality [4] was “reduced mortality” and the “Firmicutes to Bacteriodetes ratio” value [5] was “reducing the Firmicutes to Bacteriodetes ratio”.

Work on `N[C@@H](CCC(=O)O)C(=O)O` [Glu, glutamic acid, reference compound] yielded a Clostridium_XI relative abundance [1, 6] of 26%, a Clostridium_XI relative abundance [1, 7] of 18% and a Clostridium_XI relative abundance ([1]; microbiota + DSM 32315) of 25%. For the same compound, the Clostridium_XI relative abundance ([1]; microbiota, no probiotic cells) was 27% and the “synergy on n-butyrate concentration” value [2, 9] was “Synergistic positive effects”.

For `NCC(=O)O.N[C@@H](CCC(=O)O)C(=O)O` [Gly-Glu, Glycine-Glutamic acid], the “effect on Clostridia XI group” value [1] was “reduced the Clostridia XI group almost completely”, the Clostridium_XI relative abundance [1, 6] was 0% and the Clostridium_XI relative abundance [1, 7] was 0%. The Clostridium_XI relative abundance ([1]; microbiota + DSM 32315) was 0%, the Clostridium_XI relative abundance ([1]; microbiota, no probiotic cells) was 0% and the “synergy on n-butyrate concentration” value [2, 8] was “Synergistic positive effects”. The “synergy on n-butyrate concentration” value [2, 9] was “Synergistic positive effects”.
